pIC50: −log10 of the molar value. Calls of active or inactive are those of the source. The calls are words filed in the database; no cut-off is given here.
Legend:
[1] = (§1) Fraction unbound in Han Wistar rat brain at 5 uM by equilibrium dialysis method; format: ADME, tissue-based; conditions: Han Wistar, brain
[2] = Ratio of unbound AUC (0 to 7 hrs) in CSF to blood of Han Wistar rat at 2 mg/kg, po by LC-MS/MS analysis; format: ADME, organism-based; conditions: for Kp uu: Han Wistar, CSF and blood
[3] = Permeability from apical to basolateral side in MDCK2-MDR1 cells; format: ADME, cell-based, Canis lupus familiaris, MDCK-II; conditions: dog; for Papp A→B: MDCK-MDR1
[4] = (§2) AUC (0 to 7 hrs) in Han Wistar rat brain at 2 mg/kg, po by LC-MS/MS analysis; format: ADME, organism-based; design: dose 2 mg/kg, time < 7 hr, route oral; conditions: Han Wistar, brain
[5] = (§3) AUC (0 to 7 hrs) in Han Wistar rat blood at 2 mg/kg, po by LC-MS/MS analysis; format: ADME, organism-based; design: dose 2 mg/kg, time < 7 hr, route oral; conditions: Han Wistar, blood
[6] = Ratio of unbound AUC (0 to 7 hrs) in brain to blood of Han Wistar rat at 2 mg/kg, po by LC-MS/MS analysis; format: ADME, organism-based; conditions: for Kp uu: Han Wistar, brain and blood, read-out: K(p,uu,brain)
[7] = biological target: Epidermal growth factor receptor (Homo sapiens, UniProt P00533, L858R); format: cell-based, H3255
Epidermal growth factor receptor (Homo sapiens, UniProt P00533, L858R), sequence (P00533 25-1210 L858R limits assumed): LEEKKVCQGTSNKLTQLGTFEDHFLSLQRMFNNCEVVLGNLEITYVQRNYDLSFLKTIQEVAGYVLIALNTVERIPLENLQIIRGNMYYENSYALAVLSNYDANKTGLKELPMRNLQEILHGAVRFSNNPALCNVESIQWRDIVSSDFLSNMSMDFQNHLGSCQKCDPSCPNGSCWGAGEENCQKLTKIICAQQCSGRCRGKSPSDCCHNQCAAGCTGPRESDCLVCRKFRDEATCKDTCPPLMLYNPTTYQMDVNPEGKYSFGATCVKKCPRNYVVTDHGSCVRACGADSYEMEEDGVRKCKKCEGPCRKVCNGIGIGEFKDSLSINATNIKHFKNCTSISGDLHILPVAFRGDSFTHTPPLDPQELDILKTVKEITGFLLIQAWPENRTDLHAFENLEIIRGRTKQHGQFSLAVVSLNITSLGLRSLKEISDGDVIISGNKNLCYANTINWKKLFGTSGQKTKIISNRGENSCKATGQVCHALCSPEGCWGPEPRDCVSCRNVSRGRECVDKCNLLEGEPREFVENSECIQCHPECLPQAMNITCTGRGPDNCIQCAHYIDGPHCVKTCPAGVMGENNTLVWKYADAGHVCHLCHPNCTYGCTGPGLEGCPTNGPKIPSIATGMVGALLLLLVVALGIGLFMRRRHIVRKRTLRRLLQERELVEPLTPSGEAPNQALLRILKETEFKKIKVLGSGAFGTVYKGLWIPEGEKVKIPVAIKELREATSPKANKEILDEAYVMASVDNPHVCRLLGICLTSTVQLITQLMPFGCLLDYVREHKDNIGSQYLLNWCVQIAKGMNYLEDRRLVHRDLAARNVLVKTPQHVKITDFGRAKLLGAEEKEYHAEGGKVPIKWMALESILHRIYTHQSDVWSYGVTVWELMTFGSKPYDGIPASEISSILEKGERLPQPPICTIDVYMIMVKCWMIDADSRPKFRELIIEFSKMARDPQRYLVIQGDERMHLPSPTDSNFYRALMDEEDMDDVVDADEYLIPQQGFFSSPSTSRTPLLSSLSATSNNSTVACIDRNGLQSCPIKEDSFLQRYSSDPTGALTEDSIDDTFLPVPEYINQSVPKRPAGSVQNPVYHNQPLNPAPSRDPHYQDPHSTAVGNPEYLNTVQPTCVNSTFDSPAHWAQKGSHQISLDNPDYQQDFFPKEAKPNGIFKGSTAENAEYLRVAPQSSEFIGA

[8] = (§4) Fraction unbound in Han Wistar rat blood at 5 uM by equilibrium dialysis method; format: ADME, tissue-based; conditions: Han Wistar
MDR1 (P-gp) = test: Efflux ratio of permeability from basolateral to apical side over apical to basolateral side in MDCK2-MDR1 cells; format: ADME, cell-based, Canis lupus familiaris; conditions: dog, MDCK-MDR1
[9] = (§5) AUC (0 to 7 hrs) in Han Wistar rat CSF at 2 mg/kg, po by LC-MS/MS analysis; format: ADME, organism-based, Cerebrospinal fluid; design: time < 7 hr, dose 2 mg/kg, route oral; conditions: Han Wistar, CSF
[10] = (§6) Oral bioavailability in Han Wistar rat at 2 mg/kg; format: ADME, organism-based; conditions: Han Wistar, in vivo
[11] = (§7) Volume of distribution at steady state in Han Wistar rat at 1 mg/kg, iv; format: ADME, organism-based; conditions: Han Wistar, in vivo, read-out: Vdss
[12] = Clearance in Han Wistar rat at 1 mg/kg, iv; format: ADME, organism-based; conditions: in vivo
[13] = (§8) AUC(0 to 24 hrs) in Han Wistar rat at 2 mg/kg, po; format: ADME, organism-based; design: dose 2 mg/kg, time < 24 hr, route oral; conditions: Han Wistar, in vivo
[14] = (§9) Elimination half life in Han Wistar rat at 1 mg/kg, iv; format: ADME, organism-based; conditions: Han Wistar, in vivo, read-out: beta t1/2 (converted)
[15] = Clearance in Han Wistar rat at 2 mg/kg, po; format: ADME, organism-based; conditions: in vivo
Cytochrome P450 3A4 = Cytochrome P450 3A4 (Homo sapiens, UniProt P08684); test: Inhibition of human CYP3A4; format: ADME
Cytochrome P450 3A4, sequence (P08684 whole entry): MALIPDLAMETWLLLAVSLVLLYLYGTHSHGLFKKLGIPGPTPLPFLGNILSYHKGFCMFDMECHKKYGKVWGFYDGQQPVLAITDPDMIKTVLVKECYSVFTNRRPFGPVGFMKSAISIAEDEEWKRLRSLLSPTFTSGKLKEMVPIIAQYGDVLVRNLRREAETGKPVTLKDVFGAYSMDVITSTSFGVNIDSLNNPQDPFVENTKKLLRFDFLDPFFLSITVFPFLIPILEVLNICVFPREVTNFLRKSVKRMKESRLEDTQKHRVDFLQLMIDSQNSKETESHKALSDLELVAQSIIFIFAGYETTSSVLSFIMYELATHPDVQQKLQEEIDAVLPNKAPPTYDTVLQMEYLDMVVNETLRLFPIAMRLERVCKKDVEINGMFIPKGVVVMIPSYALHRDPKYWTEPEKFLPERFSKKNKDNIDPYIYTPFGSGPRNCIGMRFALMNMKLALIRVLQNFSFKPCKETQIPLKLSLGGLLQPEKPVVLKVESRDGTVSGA

Rattus norvegicus [16] = test: Volume of distribution at steady state in Han Wistar rat at 2 mg/kg, […]; format: ADME, organism-based; conditions: in vivo
[17] = biological target: Epidermal growth factor receptor (Homo sapiens, UniProt P00533, EX19DEL); test: Inhibition of EGFR exon19 deletion mutant phosphorylation in human PC9 cells; format: cell-based, PC-9
Epidermal growth factor receptor (Homo sapiens, UniProt P00533, EX19DEL), sequence (P00533 whole entry, looked up, stated change not applied): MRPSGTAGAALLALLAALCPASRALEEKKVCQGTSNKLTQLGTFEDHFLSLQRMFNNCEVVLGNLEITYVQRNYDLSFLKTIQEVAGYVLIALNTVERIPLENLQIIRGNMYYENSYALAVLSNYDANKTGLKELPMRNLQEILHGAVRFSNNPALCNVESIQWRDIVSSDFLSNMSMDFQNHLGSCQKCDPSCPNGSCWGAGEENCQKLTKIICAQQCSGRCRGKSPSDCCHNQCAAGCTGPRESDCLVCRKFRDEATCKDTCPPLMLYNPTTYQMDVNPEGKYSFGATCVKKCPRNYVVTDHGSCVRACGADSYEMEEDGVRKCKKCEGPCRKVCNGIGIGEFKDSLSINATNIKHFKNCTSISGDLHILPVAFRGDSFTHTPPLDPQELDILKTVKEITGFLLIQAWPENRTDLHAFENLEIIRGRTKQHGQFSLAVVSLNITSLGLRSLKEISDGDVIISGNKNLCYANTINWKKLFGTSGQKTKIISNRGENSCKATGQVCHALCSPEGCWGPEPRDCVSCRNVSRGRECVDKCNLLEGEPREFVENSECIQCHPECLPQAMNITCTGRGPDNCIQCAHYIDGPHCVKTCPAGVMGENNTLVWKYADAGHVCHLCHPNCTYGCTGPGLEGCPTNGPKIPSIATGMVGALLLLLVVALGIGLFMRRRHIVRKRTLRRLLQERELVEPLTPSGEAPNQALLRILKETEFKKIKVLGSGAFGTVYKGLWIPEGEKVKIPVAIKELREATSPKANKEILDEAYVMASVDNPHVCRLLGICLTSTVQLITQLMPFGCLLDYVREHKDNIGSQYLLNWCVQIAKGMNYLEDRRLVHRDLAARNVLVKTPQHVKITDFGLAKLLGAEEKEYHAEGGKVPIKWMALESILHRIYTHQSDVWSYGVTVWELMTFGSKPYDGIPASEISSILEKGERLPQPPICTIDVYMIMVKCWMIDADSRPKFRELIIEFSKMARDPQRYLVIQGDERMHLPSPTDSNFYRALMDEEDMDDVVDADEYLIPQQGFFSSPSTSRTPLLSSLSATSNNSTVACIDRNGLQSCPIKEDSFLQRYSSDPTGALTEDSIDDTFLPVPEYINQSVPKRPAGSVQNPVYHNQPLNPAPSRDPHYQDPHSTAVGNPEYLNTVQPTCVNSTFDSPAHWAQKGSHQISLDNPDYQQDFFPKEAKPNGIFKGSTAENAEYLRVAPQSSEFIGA

[18] = Elimination half life in Han Wistar rat at 2 mg/kg, po; format: ADME, organism-based; conditions: in vivo, read-out: beta t1/2 (converted)
Cytochrome P450 2D6 = Cytochrome P450 2D6 (Homo sapiens, UniProt P10635); test: Inhibition of human CYP2D6; format: ADME
Cytochrome P450 2D6, sequence (P10635 whole entry): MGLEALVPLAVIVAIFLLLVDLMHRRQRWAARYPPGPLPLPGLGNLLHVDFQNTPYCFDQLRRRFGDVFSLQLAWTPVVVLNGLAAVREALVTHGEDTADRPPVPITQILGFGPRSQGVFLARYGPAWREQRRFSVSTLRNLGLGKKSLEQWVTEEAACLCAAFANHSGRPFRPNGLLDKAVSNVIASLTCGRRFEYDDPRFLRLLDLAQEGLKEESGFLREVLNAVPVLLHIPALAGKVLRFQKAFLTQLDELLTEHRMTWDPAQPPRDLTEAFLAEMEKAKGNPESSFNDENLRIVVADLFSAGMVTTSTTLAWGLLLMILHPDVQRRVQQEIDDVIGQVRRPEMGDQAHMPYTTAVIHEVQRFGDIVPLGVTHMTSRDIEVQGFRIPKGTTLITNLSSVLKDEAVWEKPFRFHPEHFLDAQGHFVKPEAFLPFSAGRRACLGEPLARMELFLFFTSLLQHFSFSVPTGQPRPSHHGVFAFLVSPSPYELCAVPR

[19] = biological target: Voltage-gated inwardly rectifying potassium channel KCNH2 (Homo sapiens, UniProt Q12809); test: Inhibition of human ERG by patch clamp assay
Voltage-gated inwardly rectifying potassium channel KCNH2, sequence (Q12809 whole entry): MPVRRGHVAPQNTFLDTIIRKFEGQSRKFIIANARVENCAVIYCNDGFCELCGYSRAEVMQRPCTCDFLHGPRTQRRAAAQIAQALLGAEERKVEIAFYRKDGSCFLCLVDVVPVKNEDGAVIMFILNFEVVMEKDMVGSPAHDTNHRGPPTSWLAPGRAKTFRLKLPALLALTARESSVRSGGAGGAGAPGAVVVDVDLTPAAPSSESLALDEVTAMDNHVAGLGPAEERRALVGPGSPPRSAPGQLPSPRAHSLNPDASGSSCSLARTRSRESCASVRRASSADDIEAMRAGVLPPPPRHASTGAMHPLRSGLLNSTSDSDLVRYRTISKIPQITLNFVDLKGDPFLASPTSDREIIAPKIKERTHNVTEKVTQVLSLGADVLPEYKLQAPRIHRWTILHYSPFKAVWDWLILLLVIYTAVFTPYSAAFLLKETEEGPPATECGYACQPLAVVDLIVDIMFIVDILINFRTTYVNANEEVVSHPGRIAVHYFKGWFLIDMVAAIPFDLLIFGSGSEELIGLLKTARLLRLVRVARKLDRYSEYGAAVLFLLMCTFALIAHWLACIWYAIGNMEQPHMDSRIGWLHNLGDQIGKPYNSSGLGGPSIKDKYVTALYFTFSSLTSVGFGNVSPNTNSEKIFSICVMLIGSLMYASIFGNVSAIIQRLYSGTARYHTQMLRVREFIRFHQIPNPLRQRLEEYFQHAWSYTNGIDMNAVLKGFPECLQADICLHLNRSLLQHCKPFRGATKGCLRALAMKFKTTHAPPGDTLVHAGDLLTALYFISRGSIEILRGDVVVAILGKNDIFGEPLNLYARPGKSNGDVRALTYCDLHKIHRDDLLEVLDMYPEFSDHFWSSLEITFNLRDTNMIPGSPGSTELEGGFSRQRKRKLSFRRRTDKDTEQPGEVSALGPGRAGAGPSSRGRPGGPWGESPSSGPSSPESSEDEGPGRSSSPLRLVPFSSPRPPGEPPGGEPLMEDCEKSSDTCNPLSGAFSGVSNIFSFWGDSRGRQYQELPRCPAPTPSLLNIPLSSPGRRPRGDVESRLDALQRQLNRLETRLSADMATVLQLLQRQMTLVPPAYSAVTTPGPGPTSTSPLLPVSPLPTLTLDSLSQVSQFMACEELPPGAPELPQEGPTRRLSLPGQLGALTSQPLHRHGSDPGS

Cytochrome P450 2C9 = Cytochrome P450 2C9 (Homo sapiens, UniProt P11712); test: Inhibition of human CYP2C9; format: ADME
Cytochrome P450 2C9, sequence (P11712 whole entry): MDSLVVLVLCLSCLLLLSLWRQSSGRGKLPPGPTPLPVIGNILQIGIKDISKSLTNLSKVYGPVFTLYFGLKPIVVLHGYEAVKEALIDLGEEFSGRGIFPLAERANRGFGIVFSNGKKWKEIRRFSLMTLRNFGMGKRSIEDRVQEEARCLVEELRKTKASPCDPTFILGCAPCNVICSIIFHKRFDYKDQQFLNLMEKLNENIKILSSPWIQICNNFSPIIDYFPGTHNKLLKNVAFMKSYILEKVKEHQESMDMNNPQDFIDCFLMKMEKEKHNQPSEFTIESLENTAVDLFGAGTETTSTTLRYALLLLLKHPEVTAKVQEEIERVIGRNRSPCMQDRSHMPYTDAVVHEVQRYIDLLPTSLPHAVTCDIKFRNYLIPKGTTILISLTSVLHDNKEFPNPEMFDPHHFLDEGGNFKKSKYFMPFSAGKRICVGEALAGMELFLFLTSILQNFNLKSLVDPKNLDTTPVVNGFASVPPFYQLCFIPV

[20] = AUC (0 to 7 hrs) in Han Wistar rat brain at 20 mg/kg, po measured after 0.5 to 24 hrs by LC-MS/MS analysis; format: ADME, organism-based; design: time < 7 hr, dose 20 mg/kg, route oral
[21] = Ratio of unbound AUC (0 to 24 hrs) in CSF to blood of Han Wistar rat at 20 mg/kg, po by LC-MS/MS analysis; format: ADME, organism-based; conditions: CSF and blood
[22] = AUC (0 to 7 hrs) in Han Wistar rat blood at 20 mg/kg, po measured after 0.5 to 24 hrs by LC-MS/MS analysis; format: ADME, organism-based; design: time < 7 hr, dose 20 mg/kg, route oral
BCRP [23] = test: Permeability from apical to basolateral side in BCRP transfected MDCK2 cells; format: ADME, cell-based, Canis lupus familiaris, MDCK-II; conditions: dog
[24] = AUC (0 to 7 hrs) in Han Wistar rat CSF at 20 mg/kg, po measured after 0.5 to 24 hrs by LC-MS/MS analysis; format: ADME, organism-based, Cerebrospinal fluid; design: time < 7 hr, dose 20 mg/kg, route oral
[25] = Ratio of unbound AUC (0 to 24 hrs) in brain to blood of Han Wistar rat at 20 mg/kg, po by LC-MS/MS analysis; format: ADME, organism-based; conditions: brain and blood, read-out: K(p,uu,brain)
Mus musculus = test: Toxicity in PC9 cells expressing EGFR exon19 deletion mutant xenografted mouse assessed as loss of body weight at 15 mg/kg, qd; format: organism-based, PC-9; conditions: in vivo
BCRP [26] = test: in vitro; conditions: dog
Description: Efflux ratio of permeability from basolateral to apical side over apical to basolateral side in BCRP transfected MDCK2 cells

PC-9 [27] = test: Antitumor activity against human PC9 cells expressing EGFR exon19 deletion mutant xenografted in mouse at 15 mg/kg, qd measured after 4 weeks; format: functional, organism-based
PC-9 [28] = test: Antitumor activity against human PC9 cells expressing EGFR exon19 deletion mutant xenografted in mouse assessed as tumor regression at 15 mg/kg, qd measured after 4 weeks; format: functional, organism-based
Rattus norvegicus [29] = test: as §6; format: ADME, organism-based; conditions: in vivo
Brain [30] = test: as §1; format: ADME, tissue-based; conditions: 5 µM
Rattus norvegicus [31] = test: as §7; format: ADME, organism-based; conditions: in vivo
Brain [32] = test: as §2; format: ADME, organism-based; design: dose 2 mg/kg, time < 7 hr, route oral; conditions: in vivo, 7 h
Blood [33] = test: as §3; format: ADME, organism-based; design: dose 2 mg/kg, time < 7 hr, route oral; conditions: in vivo, 7 h
Blood [34] = test: as §4; format: ADME, tissue-based; conditions: 5 µM
Rattus norvegicus [35] = test: as §8; format: ADME, organism-based; design: dose 2 mg/kg, time < 24 hr, route oral; conditions: in vivo, 24 h
Rattus norvegicus [36] = test: as §9; format: ADME, organism-based; conditions: in vivo
Cerebrospinal fluid = test: as §5; format: ADME, organism-based; design: time < 7 hr, dose 2 mg/kg, route oral; conditions: in vivo, 7 h

fraction unbound at 5 µM [1]	Kp uu [2]	Papp A→B [3] [×10⁻⁶ cm/s]	fraction unbound at 5 µM [8]	efflux ratio (MDR1 (P-gp))	AUC(0-t) at 7 h [9] [µM·h]	SMILES	AUC(0-t) at 7 h [4] [µM·h]	AUC(0-t) at 7 h [5] [µM·h]	Kp uu [6]	pIC50 [7]	other results
0.03	0.76	32	0.078	0.33	0.05	COc1cc2ncnc(Nc3cccc(Cl)c3F)c2cc1CN1CCOCC1	1.01	0.834	0.47	8.18	CL/F [15]: 59 mL/min/kg; pIC50 (Cytochrome P450 3A4): < 5.00; bioavailability [10]: 44%; Vdss (Rattus norvegicus [16]): 2.8 L/kg; pIC50 [17]: 8.42; half-life [18]: 1.1 h; pIC50 (Cytochrome P450 2D6): < 5.00; pIC50 [19]: 4.77; pIC50 (Cytochrome P450 2C9): < 5.00
0.026	3.4	42	0.038	0.58	0.005	COc1cc2ncnc(Nc3cccc(Cl)c3F)c2cc1OC(=O)N1CCOCC1	0.104	0.042	1.7	8.39	–
0.0039	–	8.3	–	–	–	COc1cc2ncnc(Nc3ccc(F)c(Cl)c3)c2cc1OCCCN1CCOCC1 [GEFITINIB]	–	–	–	–	AUC(0-t) at 7 h [20]: 5.65 µM·h; Kp uu [21]: 0.088; AUC(0-t) at 7 h [22]: 31.9 µM·h; Papp A→B (BCRP [23]): 4.2 ×10⁻⁶ cm/s; AUC(0-t) at 7 h [24]: 0.093 µM·h; Kp uu [25]: 0.021
0.015	2.6	51	0.023	–	0.048	COc1cc2ncnc(Nc3cccc(Cl)c3F)c2cc1OC(=O)N1CCN(C)C[C@@H]1C	1.94	0.805	1.6	–	bioavailability [10]: 83%; Vd [11]: 2.7 L/kg; clearance [12]: 29 mL/min/kg; AUC(0-t) at 24 h [13]: 2.95 µM·h; half-life [14]: 2.4 h
0.022	0.93	32	0.058	0.29	0.002	COc1cc2ncnc(Nc3cccc(Cl)c3F)c2cc1N1CCOCC1	0.085	0.033	0.96	8.82	–
0.088	0.16	28	0.17	2.9	0.046	COc1cc2ncnc(Nc3cccc(Cl)c3F)c2cc1C(=O)N1CCOCC1	0.101	1.63	0.03	6.78	–
0.0083	0.79	29	0.022	0.18	0.001	COc1cc2ncnc(Nc3ccc(F)c(Cl)c3)c2cc1N1CCOCC1	0.085	0.077	0.42	8.82	–
0.0054	–	2.5	0.041	11	–	CN(C)C/C=C/C(=O)Nc1cc2c(Nc3ccc(F)c(Cl)c3)ncnc2cc1O[C@H]1CCOC1 [AFATINIB]	–	–	–	–	Kp uu [21]: 0.27; efflux ratio (BCRP [26]): 59; Papp A→B (BCRP [23]): 1.3 ×10⁻⁶ cm/s; Kp uu [25]: 0.0066

Further lines, the compound ahead of its results:

SMILES	fraction unbound at 5 µM [1]	Kp uu [2]	Papp A→B [3] [×10⁻⁶ cm/s]	fraction unbound at 5 µM [8]	efflux ratio (MDR1 (P-gp))	AUC(0-t) at 7 h [9] [µM·h]	AUC(0-t) at 7 h [4] [µM·h]	AUC(0-t) at 7 h [5] [µM·h]	Kp uu [6]	pIC50 [7]	other results
COc1cc2ncnc(Nc3cccc(Cl)c3F)c2cc1OC(=O)N1CC[C@H](N(C)C)C1	0.024	0.56	17	0.049	0.34	0.068	0.798	2.48	0.15	8.57	–
COc1cc2ncnc(Nc3cccc(Cl)c3F)c2cc1OC(=O)N1CCN(C)[C@@H](C)C1	0.016	3.5	59	0.035	1.5	0.019	0.278	0.157	0.84	7.77	bioavailability [10]: 24%; Vd [11]: 1.9 L/kg; clearance [12]: 26 mL/min/kg; AUC(0-t) at 24 h [13]: 0.789 µM·h; half-life [14]: 1.1 h
COc1cc2ncnc(Nc3cccc(Cl)c3F)c2cc1OC(=O)N1CC[C@@H](N(C)C)C1	0.023	0.43	47	0.058	0.76	0.075	2.04	3	0.27	8.96	–
C#Cc1cccc(Nc2ncnc3cc(OCCOC)c(OCCOC)cc23)c1 [ERLOTINIB]	0.029	–	19	0.045	1.7	–	–	–	–	–	Kp uu [21]: 0.29; Activity (Mus musculus): Toxic; efflux ratio (BCRP [26]): 5.4; Activity (PC-9 [27]): Active; Papp A→B (BCRP [23]): 14 ×10⁻⁶ cm/s; Activity (PC-9 [28]): Active; Kp uu [25]: 0.11
COc1cc2ncnc(Nc3cccc(Cl)c3F)c2cc1OC(=O)N1CCN(C)[C@H](C)C1	0.018	0.28	54	0.064	0.94	0.007	0.417	0.404	0.28	7.67	bioavailability [10]: 92%; Vd [11]: 3.2 L/kg; clearance [12]: 55 mL/min/kg; AUC(0-t) at 24 h [13]: 1.04 µM·h; half-life [14]: 1.3 h
COc1cc2ncnc(Nc3cccc(Cl)c3F)c2cc1OC(=O)N1CCN(C)C2CC21 (stereo in doubt; 1i)	0.019	0.9	67	0.028	–	0.019	0.585	0.786	0.51	–	F (Rattus norvegicus [29]): 52%; Vd [11]: 2 L/kg; clearance [12]: 28 mL/min/kg; AUC(0-t) at 24 h [13]: 1.57 µM·h; half-life [14]: 0.9 h
COc1cc2ncnc(Nc3cccc(Cl)c3F)c2cc1OC(=O)N1CCN(C)C2CC21 (stereo in doubt; 1j)	–	–	–	–	–	–	–	–	–	–	Fu (Brain [30]): 1.8%; F (Rattus norvegicus [29]): 84%; Vdss (Rattus norvegicus [31]): 2.5 L/kg; K(p,uu,CSF) [2]: 1.6; Papp ([3]; mdck-ii): 76 ×10⁻⁶ cm/s; AUC (Brain [32]): 0.727 µM·h; AUC (Blood [33]): 0.74 µM·h; K(p,uu,brain) ([6]; brain): 0.74; Fu (Blood [34]): 2.4%; AUC (Rattus norvegicus [35]): 2.315 µM·h; beta t1/2 (Rattus norvegicus [36]): 1.3 h; AUC (Cerebrospinal fluid): 0.028 µM·h
COc1cc2ncnc(Nc3cccc(Cl)c3F)c2cc1OC(=O)N1C[C@@H]2C[C@H]1CN2C	0.016	–	14	0.134	0.39	–	0.332	0.454	0.086	8.64	K(p,uu,CSF) ([2]; BLD = below limit of detection): BLD; AUC (Cerebrospinal fluid; BLD = below limit of detection): BLD

Source: ChEMBL document CHEMBL3621142, “Discovery and Evaluation of Clinical Candidate AZD3759, a Potent, Oral Active, Central Nervous System-Penetrant, Epidermal Growth Factor Receptor Tyrosine Kinase Inhibitor” (J Med Chem, 2015)
